Active and inactive are the calls of the source. No cut-off for these calls is given here.
Legend:
[1] = molecular target: T1, Delta(3,5)-Delta(2,4)-dienoyl-CoA isomerase, mitochondrial (Homo sapiens) (UniProt Q13011); assay: Binding affinity to delta(3,5)-delta(2,4)-dienoyl-CoA isomerase, mitochondrial in human A549 cells by LC-MS/MS analysis; format: cell-based
T1 sequence (whole entry): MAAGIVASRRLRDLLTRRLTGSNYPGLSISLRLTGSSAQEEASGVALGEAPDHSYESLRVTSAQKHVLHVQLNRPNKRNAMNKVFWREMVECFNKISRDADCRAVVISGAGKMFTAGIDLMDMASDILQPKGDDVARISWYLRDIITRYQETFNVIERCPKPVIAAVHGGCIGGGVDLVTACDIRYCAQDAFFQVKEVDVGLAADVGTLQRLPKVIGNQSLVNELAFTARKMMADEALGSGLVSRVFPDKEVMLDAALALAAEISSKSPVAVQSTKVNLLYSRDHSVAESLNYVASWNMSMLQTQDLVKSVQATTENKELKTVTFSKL

[2] = Antitumor activity against […] cells xenografted in KM mouse assessed as tumor growth inhibition at 27 mg/kg, ig administered every day for 10 days relative to control; format: functional; settings: H22, po, 240 h, time 10 day, read-out: TGI
[3] = Toxicity in […] lung cancer cells xenografted BALB/c mouse assessed as survival rate at 240 mg/kg, ig administered every day for 10 days (reference value: 100%); format: organism-based; settings: in vivo, po, time 10 day
[4] = Antitumor activity against […] cells xenografted in KM mouse assessed as tumor growth inhibition at 80 mg/kg, ig administered every day for 10 days relative to control; format: functional; settings: H22, po, 240 h, time 10 day, read-out: TGI
[5] = Antitumor activity against […] cells xenografted in KM mouse assessed as tumor growth inhibition at 240 mg/kg, ig administered every day for 10 days relative to control; format: functional; settings: H22, po, 240 h, time 10 day, read-out: TGI
[6] = Toxicity in […] cells xenografted KM mouse assessed as survival rate at 27 mg/kg, ig administered every day for 10 days relative to control; format: organism-based; settings: in vivo, po, time 10 day
[7] = molecular target: Heat shock 70 kDa protein 1A/1B (Homo sapiens) (UniProt P0DMV8+P0DMV9); assay: Binding affinity to heat shock 70 kDa protein 1A/1B in human A549 cells by LC-MS/MS analysis; format: cell-based
[8] = Toxicity in […] lung cancer cells xenografted BALB/c mouse assessed as net weight at 240 mg/kg, ig administered every day for 10 days (reference value: 1.16 +/- 1.55 g); format: organism-based; settings: in vivo, po, 240 h, time 10 day
[9] = Toxicity in […] cells xenografted KM mouse assessed as survival rate at 240 mg/kg, ig administered every day for 10 days relative to control; format: organism-based; settings: in vivo, po, time 10 day
[10] = Toxicity in […] lung cancer cells xenografted BALB/c mouse assessed as survival rate at 27 mg/kg, ig administered every day for 10 days (reference value: 100%); format: organism-based; settings: in vivo, po, time 10 day
[11] = Toxicity in […] lung cancer cells xenografted BALB/c mouse assessed as net weight at 27 mg/kg, ig administered every day for 10 days (reference value: 1.16 +/- 1.55 g); format: organism-based; settings: in vivo, po, 240 h, time 10 day
[12] = molecular target: Glyceraldehyde-3-phosphate dehydrogenase (Homo sapiens) (UniProt P04406); assay: Binding affinity to GAPDH in human A549 cells by LC-MS/MS analysis; format: cell-based
[13] = molecular target: Heat shock cognate 71 kDa protein (Homo sapiens) (UniProt P11142); assay: Binding affinity to heat shock cognate 71 kDa protein isoform 1 in human A549 cells by LC-MS/MS analysis; format: cell-based
[14] = Antitumor activity against […] cancer cells xenografted in BALB/c mouse assessed as tumor weight at 80 mg/kg, ig administered every day for 10 days (reference value: 1.68 +/- 0.78 g); format: functional, Lewis lung carcinoma; settings: time 10 day
[15] = Toxicity in […] cells xenografted KM mouse assessed as net weight at 80 mg/kg, ig administered every day for 10 days (reference value: 9.45 +/- 4 g); format: organism-based; settings: in vivo, po, 240 h, time 10 day
[16] = molecular target: Tropomyosin alpha-1 chain (Homo sapiens) (UniProt P09493); assay: Binding affinity to tropomyosin alpha-1 chain isoform 1 in human A549 cells by LC-MS/MS analysis; format: cell-based
[17] = Antitumor activity against […] cancer cells xenografted in BALB/c mouse assessed as tumor growth inhibition at 27 mg/kg, ig administered every day for 10 days relative to control; format: functional; settings: Lewis lung carcinoma, po, 240 h, time 10 day, read-out: TGI
[18] = Antitumor activity against […] cancer cells xenografted in BALB/c mouse assessed as tumor weight at 240 mg/kg, ig administered every day for 10 days (reference value: 1.68 +/- 0.78 g); format: functional, Lewis lung carcinoma; settings: time 10 day
[19] = Antitumor activity against […] cancer cells xenografted in BALB/c mouse assessed as lung weight at 27 mg/kg, ig administered every day for 10 days measured post last dose (reference value: 0.13 +/- 0.03 g); format: functional, Lewis lung carcinoma; settings: time 10 day
[20] = Toxicity in […] cells xenografted KM mouse assessed as net weight at 27 mg/kg, ig administered every day for 10 days (reference value: 9.45 +/- 4 g); format: organism-based; settings: in vivo, po, 240 h, time 10 day
[21] = molecular target: Endoplasmic reticulum chaperone BiP (Homo sapiens) (UniProt P11021); assay: Binding affinity to 78 kDa glucose-regulated protein in human A549 cells by LC-MS/MS analysis; format: cell-based
[22] = Antitumor activity against […] cancer cells xenografted in BALB/c mouse assessed as lung weight at 240 mg/kg, ig administered every day for 10 days measured post last dose (reference value: 0.13 +/- 0.03 g); format: functional, Lewis lung carcinoma; settings: time 10 day
HepG2 = assay: Antiproliferative activity against human HepG2 cells assessed as inhibition of cell growth at 12.5 ug/ml measured after 48 hrs by real-time cell analysis relative to control; format: functional; settings: read-out: GI
[23] = Toxicity in […] lung cancer cells xenografted BALB/c mouse assessed as net weight at 80 mg/kg, ig administered every day for 10 days (reference value: 1.16 +/- 1.55 g); format: organism-based; settings: in vivo, po, 240 h, time 10 day
[24] = Antitumor activity against […] cells xenografted in KM mouse assessed as tumor weight at 27 mg/kg, ig administered every day for 10 days (reference value: 0.55 +/- 0.57 g); format: functional; settings: time 10 day
[25] = Antitumor activity against […] cells xenografted in KM mouse assessed as liver weight at 27 mg/kg, ig administered every day for 10 days measured post last dose (reference value: 1.57 +/- 0.3 g); format: functional; settings: time 10 day
[26] = Toxicity in […] cells xenografted KM mouse assessed as net weight at 240 mg/kg, ig administered every day for 10 days (reference value: 9.45 +/- 4 g); format: organism-based; settings: in vivo, po, 240 h, time 10 day
[27] = Toxicity in […] lung cancer cells xenografted BALB/c mouse assessed as survival rate at 80 mg/kg, ig administered every day for 10 days (reference value: 100%); format: organism-based; settings: in vivo, po, time 10 day
[28] = Antitumor activity against […] cancer cells xenografted in BALB/c mouse assessed as tumor weight at 27 mg/kg, ig administered every day for 10 days (reference value: 1.68 +/- 0.78 g); format: functional, Lewis lung carcinoma; settings: time 10 day
A549 = assay: Antiproliferative activity against human A549 cells assessed as inhibition of cell growth at 12.5 ug/ml measured after 48 hrs by real-time cell analysis relative to control; format: functional; settings: read-out: GI

Endoplasmic reticulum chaperone BiP (Homo sapiens), sequence (P11021 whole entry): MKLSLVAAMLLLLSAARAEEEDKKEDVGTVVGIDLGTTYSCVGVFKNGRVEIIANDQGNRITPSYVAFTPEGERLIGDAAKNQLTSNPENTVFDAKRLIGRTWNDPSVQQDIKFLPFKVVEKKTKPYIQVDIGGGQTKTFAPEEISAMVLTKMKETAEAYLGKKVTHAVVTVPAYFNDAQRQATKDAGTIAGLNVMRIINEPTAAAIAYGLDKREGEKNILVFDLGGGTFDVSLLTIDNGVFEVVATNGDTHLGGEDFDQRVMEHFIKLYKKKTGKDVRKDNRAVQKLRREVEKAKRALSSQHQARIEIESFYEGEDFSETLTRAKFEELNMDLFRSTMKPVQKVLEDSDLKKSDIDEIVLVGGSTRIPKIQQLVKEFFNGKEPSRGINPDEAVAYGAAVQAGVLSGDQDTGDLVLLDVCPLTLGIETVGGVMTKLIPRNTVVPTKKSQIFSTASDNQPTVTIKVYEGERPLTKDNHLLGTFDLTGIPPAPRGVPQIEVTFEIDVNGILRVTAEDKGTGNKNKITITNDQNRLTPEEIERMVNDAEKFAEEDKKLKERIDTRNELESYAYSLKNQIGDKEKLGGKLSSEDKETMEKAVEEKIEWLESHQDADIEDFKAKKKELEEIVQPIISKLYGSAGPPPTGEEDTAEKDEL
Glyceraldehyde-3-phosphate dehydrogenase (Homo sapiens), sequence (P04406 2-335 limits assumed): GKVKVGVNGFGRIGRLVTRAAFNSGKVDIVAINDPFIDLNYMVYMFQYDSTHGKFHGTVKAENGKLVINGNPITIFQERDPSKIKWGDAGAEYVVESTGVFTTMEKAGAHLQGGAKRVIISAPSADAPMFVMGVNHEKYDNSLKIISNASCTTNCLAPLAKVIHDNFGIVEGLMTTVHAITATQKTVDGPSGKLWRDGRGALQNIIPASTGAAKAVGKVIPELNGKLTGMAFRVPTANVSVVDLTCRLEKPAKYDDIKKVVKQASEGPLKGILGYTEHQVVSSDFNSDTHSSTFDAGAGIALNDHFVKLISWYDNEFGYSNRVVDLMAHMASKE
Heat shock cognate 71 kDa protein (Homo sapiens), sequence (P11142 2-646 limits assumed): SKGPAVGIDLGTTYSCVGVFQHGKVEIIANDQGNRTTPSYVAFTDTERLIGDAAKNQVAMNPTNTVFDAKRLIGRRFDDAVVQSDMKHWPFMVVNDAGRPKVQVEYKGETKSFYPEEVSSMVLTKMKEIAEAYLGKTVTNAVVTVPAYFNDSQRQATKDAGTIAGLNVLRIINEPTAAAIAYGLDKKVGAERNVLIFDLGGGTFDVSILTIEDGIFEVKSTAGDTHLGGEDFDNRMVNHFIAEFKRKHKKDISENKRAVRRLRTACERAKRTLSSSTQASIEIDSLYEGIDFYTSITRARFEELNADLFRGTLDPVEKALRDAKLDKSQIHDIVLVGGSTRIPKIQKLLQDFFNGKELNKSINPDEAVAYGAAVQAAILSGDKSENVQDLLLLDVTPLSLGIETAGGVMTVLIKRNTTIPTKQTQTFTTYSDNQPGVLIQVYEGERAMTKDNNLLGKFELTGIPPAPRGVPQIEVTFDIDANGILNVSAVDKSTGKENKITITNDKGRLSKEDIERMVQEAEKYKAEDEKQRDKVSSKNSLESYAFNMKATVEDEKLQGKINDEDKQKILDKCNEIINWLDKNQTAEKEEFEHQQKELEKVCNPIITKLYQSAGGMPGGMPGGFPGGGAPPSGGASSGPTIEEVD
Tropomyosin alpha-1 chain (Homo sapiens), sequence (P09493 whole entry, canonical isoform): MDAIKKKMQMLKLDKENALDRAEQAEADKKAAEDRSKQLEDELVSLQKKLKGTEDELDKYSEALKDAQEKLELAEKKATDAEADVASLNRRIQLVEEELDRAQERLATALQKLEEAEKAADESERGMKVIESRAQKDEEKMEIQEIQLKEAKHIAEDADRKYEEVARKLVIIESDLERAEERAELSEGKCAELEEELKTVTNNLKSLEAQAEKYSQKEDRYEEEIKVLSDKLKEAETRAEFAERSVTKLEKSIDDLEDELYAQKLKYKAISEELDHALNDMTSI
Heat shock 70 kDa protein 1A/1B (Homo sapiens), sequence (P0DMV8 whole entry, looked up): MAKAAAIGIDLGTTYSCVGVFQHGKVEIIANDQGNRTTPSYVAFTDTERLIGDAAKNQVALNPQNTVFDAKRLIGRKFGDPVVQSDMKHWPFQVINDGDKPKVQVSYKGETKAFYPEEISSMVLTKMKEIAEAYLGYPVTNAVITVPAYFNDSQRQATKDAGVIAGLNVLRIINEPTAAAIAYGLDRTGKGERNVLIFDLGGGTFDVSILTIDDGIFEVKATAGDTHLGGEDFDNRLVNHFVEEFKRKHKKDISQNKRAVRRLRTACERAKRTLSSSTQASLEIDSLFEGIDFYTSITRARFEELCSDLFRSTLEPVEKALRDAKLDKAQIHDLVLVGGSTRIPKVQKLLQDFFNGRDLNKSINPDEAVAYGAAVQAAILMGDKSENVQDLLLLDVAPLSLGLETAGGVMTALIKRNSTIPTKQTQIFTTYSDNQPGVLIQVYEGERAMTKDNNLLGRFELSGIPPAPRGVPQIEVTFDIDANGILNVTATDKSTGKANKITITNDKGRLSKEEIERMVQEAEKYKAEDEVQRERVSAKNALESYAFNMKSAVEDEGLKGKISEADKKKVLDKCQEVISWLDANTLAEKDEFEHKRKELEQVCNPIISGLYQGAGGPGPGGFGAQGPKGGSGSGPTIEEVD
Heat shock 70 kDa protein 1A/1B (Homo sapiens), sequence (P0DMV9 whole entry, looked up): as the sequence (P0DMV8 whole entry, looked up) above

For `CC(C)[C@@H](C)/C=C/[C@@H](C)[C@H]1CC[C@H]2C3=CC=C4C[C@@H](O)CC[C@]4(C)[C@H]3CC[C@]12C` [ERGOSTEROL], the Activity [1] was “Active”, the inhibition in vivo at 27 mg/kg [2] was 23.4% and the survival at 240 h [3] was 100%. For the same compound, the inhibition in vivo at 80 mg/kg [4] was 41.1%, the inhibition in vivo at 240 mg/kg [5] was 64.4% and the survival at 240 h [6] was 100%. The Activity [7] was “Active”, the Activity [8] was -0.61 g and the survival at 240 h [9] was 100%. The survival at 240 h [10] was 100%, the Activity [11] was -0.36 g and the Activity [12] was “Active”. For the same compound, the Activity [13] was “Active”, the Activity [14] was 1.21 g and the Activity [15] was 7.78 g. For the same compound, the Activity [16] was “Active”, the inhibition in vivo at 27 mg/kg [17] was 15.8% and the Activity [18] was 0.93 g. The Activity [19] was 0.12 g, the Activity [20] was 6.92 g and the Activity [21] was “Active”. For the same compound, the Activity [22] was 0.13 g, the inhibition of growth at 12.5 µg/mL (HepG2) was 100% and the Activity [23] was -0.95 g. The Activity [24] was 0.42 g, the Activity [25] was 1.67 g and the Activity [26] was 5.7 g. The survival at 240 h [27] was 100%, the Activity [28] was 1.42 g and the inhibition of growth at 12.5 µg/mL (A549) was 100%.

Source: ChEMBL document CHEMBL4706663, “Large-scale isolation and antitumor mechanism evaluation of compounds from the traditional Chinese medicine Cordyceps Militaris” (Eur J Med Chem, 2021)
